These results are taken from patent US6497862B2, “Composition for inhibiting body odor and uses thereof” (Kabushiki Kaisha Hayashibara, priority 2000, dated 2002).

Assay [1] in a line: Formation of 2-nonenal from 9-hexadecanoic acid by heating, GC of HSG (Experiment 3). Particulars: 9-hexadecanoic acid + 100 mg test saccharide, heated at 105° C. for one hour; control 25.7. The procedure: (§1) One hundred milligrams of oleic acid as a fatty acid, 500 mg of cellulose powder, and 1.25 ml of 0.12 M phosphate buffer (pH 6.0) were placed in a 20-ml glass vial. To the glass vial were added 100 mg of either of crystalline trehalose hydrate, crystalline maltitol anhydride, crystalline sorbitol anhydride, crystalline sucrose anhydride, crystalline maltose anhydride, and crystalline neotrehalose hydride as test saccharides (throughout Experiments 1 to 6, these saccharides are designated as “trehalose”, “maltitol”, sorbitol”, “sucrose”, “maltose”, and “neotrehalose”, respectively), followed by sealing the glass vial with a butyl rubber. As a control system, there provided a glass vial, with no a test saccharide, which differed from the test glass vial on this point. These glass vials were heated at 105° C. for one hour, cooled to ambient temperature, and kept in an aluminum heat-block (abbreviated as “heat block, hereinafter”), which had been preheated to 80° C. After 5-minutes standing, two milliliters of a head space gas (abbreviated as “HSG”, hereinafter) were collected from each glass vial with a syringe.
(§2) The collected HSG was analyzed for content of volatile aldehydes on gas chromatography (abbreviated as “GC” hereinafter) using “GAS CHROMATOGRAPH GC-14A”, as a GC apparatus; “CAPILLARY COLUMN SUPELCO-WAX”, having 0.25 mm in inner diameter, 60 m in length, and 0.25 μm in thickness, commercialized by Supelco Inc., Tokyo, Japan, as a column for analysis; helium gas at a flow rate of one ml/min as a carrier gas, under temperature conditions of 250° C. for injecting a sample and of a column thermostatic bath temperature being kept at 80° C. for five minutes and then increased up to 240° C. at a rate of 5° C./min. As standard specimens, propanal, butanal, and hexanal as volatile aldehydes were used. Based on the peak area obtained from gas chromatography for the standard specimens and HSG samples, the content of respective volatile aldehydes in HSG was calculated.
The content of 2-nonenal in HSG was measured by GC similarly as in Experiment 1 except that 9-hexadecanoic acid or palmitoleic acid was used as a fatty acid and 2-nonenal, a volatile aldehyde, was used as a standard substance. The level of body-odor-like smell, particularly with respect to KAREI-SHU, in each sample was evaluated by panel test in accordance with the method in Experiment 1.

Assay [2] can be described thus: Decomposition of fatty acids by heating, 9-hexadecanoic acid (Experiment 5). As to conditions: heated at 105° C. for one hour with 100 mg test saccharide; control 38.1. On the procedure: One hundred milligrams of linoleic acid or 9-hexadecanoic acid as a fatty acid, 500 mg of a cellulose powder, and 1.25 ml of 0.12 M phosphate buffer (pH 6.0) were placed in a 20-ml glass vial. To the glass vial was added 100 mg of either of trehalose, maltitol and sucrose as a test saccharide, followed by sealing with a butyl rubber cap. As a control system, there provided a glass vial with no test saccharide that differed from the test systems only in this point. These vials were heated at 105° C. for one hour. Another glass vial with no heat treatment, which contained the same ingredients as shown in the above, was provided that differed from the test systems only in that it had no heat treatment.
The above test systems with or without heat treatment and the control system were subjected to the following methyl esterification reaction and analyzed on GC to measure the content of fatty acids; To each glass vial was added 20 ml of a mixture solution of chloroform and methanol (=2:1 by volume) to extract fatty acids, and one milliliter of each resulting extract was collected in a 10-ml eggplant-shape flask, concentrated, and dried in vacuo. […]
Two microliters of each of the resulting n-hexane layers were analyzed on GC using “GAS CHROMATOGRAPH GC-14A”, a GC apparatus, commercialized by Shimadzu Corporation, Tokyo, Japan; and “CAPILLARY COLUMN FFAP”, an analysis column having an inner diameter of 0.25 mm, a length of 30 m, and a membrane thickness of 0.25 μm, commercialized by GL Sciences Inc., Tokyo, Japan, under the conditions of using helium gas as a carrier at a flow rate of 1 ml/min, at a temperature of 250° C. as a sample injection temperature, a column thermostatic bath temperature being kept at 80° C. for five minutes and then increased up to 240° C. at a rate of 5° C./min, and a hydrogen flame ionization detector for detecting fatty acids. Based on the peak area of the obtained gas chromatograms, it was calculated the content of fatty acids, i.e., linoleic acid and 9-hexadecanoic acid, before or after the heat treatment in the test- and control-systems. […]

Assay [3] can be described thus: Formation of 2-nonenal from linoleic acid by heating, GC of HSG (Experiment 2). Particulars: linoleic acid + 100 mg test saccharide, heated at 105° C. for one hour; control 5.75. On the procedure: as §1, §2
The content of 2-nonenal in HSG was measured by GC similarly as in Experiment 1 except that linoleic acid was used as a fatty acid and 2-nonenal, a volatile aldehyde, was used as a standard substance. The level of a body-odor-like smell, particularly with respect to KAREI-SHU, in each sample was evaluated by panel test in accordance with the method in Experiment 1.

Assay [4] can be described thus: Dispersion of 2-nonenal, GC of HSG (Experiment 4). Particulars: 10 mg 2-nonenal + 100 mg test saccharide, 80° C. 5 min (dispersion test); control 8.67. On the procedure:
Ten milligrams of 2-nonenal, 500 mg of a cellulose powder, and 1.25 ml of 0.12 M phosphate buffer (pH 6.0) were placed in a 20-ml glass vial. To the glass vial was added 100 mg of either of trehalose, maltitol and sucrose as a test saccharide, followed by sealing with a butyl rubber cap. As a control system, there provided a glass vial with no test saccharide that differed from the test systems only in this point. These glass vials were kept in a heat block, preheated to 80° C. After 5-min standing, the glass vials were sampled by two milliliters of HSG with a gas syringe. The content of 2-nonenal in the sampled HSG was measured by GC in accordance with the method in Experiment 2.

As to `OC[C@H]1O[C@H](O[C@H]2O[C@H](CO)[C@@H](O)[C@H](O)[C@H]2O)[C@H](O)[C@@H](O)[C@@H]1O` [Trehalose, trehalose], the “Content of 2-nonenal in HSG” value in assay [1] amounted to 4.10 µg/mL; in assay [3], 1.27 µg/mL; in assay [4], 8.60 µg/mL. Further, in assay [2], the “Decomposition percentage, 9-Hexadecanoic acid” value turned out to be 13.2%.
The corresponding values for `OC[C@@H](O)[C@@H](O[C@H]1O[C@H](CO)[C@@H](O)[C@H](O)[C@H]1O)[C@H](O)[C@@H](O)CO` [Maltitol, maltitol] are 6.17 µg/mL, 1.73 µg/mL, 8.27 µg/mL and 14.7%.
The corresponding values for `OC[C@H]1O[C@@](CO)(O[C@H]2O[C@H](CO)[C@@H](O)[C@H](O)[C@H]2O)[C@@H](O)[C@@H]1O` [Sucrose, sucrose] are 24.4 µg/mL, 5.41 µg/mL, 8.70 µg/mL and 38.5%.
